# Read-outs that look alike come from different tables or passages of the source. No end group written: not given here.
# T1: endogenous TSC1 protein (human, lung cancer LC319 cells) (human, UniProt Q92574 1-1164, limits assumed)
# T1 construct: Endogenous protein in LC319 cell extracts
# T1 sequence: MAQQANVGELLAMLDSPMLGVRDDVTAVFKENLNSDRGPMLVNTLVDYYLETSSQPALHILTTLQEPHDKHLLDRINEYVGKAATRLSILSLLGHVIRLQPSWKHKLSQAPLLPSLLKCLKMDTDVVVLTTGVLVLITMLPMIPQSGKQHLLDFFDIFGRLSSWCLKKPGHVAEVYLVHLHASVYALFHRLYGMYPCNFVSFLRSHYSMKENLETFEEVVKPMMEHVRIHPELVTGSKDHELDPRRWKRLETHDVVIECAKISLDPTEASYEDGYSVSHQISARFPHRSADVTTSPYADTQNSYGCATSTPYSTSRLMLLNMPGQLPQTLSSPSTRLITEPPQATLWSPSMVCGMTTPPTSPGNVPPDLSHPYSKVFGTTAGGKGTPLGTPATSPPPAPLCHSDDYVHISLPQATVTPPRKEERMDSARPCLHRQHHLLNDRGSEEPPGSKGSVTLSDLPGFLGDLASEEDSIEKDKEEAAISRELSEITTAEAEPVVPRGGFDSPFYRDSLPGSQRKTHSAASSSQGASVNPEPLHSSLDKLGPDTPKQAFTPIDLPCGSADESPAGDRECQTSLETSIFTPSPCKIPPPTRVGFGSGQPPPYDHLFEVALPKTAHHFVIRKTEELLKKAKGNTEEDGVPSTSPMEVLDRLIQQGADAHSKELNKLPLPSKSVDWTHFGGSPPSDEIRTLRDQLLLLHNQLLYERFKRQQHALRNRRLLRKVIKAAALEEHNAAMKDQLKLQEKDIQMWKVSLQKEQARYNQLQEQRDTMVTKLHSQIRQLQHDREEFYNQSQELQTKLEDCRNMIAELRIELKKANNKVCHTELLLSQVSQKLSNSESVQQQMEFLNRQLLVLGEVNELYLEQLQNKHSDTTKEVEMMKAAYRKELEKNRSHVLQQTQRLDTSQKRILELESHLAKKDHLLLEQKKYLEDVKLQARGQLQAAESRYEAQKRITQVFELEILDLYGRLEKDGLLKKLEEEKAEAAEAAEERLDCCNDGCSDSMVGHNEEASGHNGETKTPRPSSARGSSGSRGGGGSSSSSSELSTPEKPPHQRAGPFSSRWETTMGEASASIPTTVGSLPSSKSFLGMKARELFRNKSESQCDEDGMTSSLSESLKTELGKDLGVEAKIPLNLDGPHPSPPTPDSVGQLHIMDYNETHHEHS
# Assays:
# lung cancer LC319 cells [1] = assay: Dominant-negative peptide assay, MTT, LC319 cells; format: cell-based, human; conditions: peptide 10, 15 or 20 microM for 3 days
# Description: (§1) Twenty-amino-acid sequence derived from minimized TSC1-binding domain in TBC1D7 (codons 112-171; see FIG. 5B) was covalently linked at its N-terminus to a membrane transducing 11 poly-arginine sequence (11R) as described elsewhere (Hayama S, Daigo Y, Kato T, et al. Cancer Res 2006; 66:10339-48, Hayama S, Daigo Y, Yamabuki T, et al. Cancer Res 2007; 67:4113-22). Three dominant-negative peptides were synthesized covering the codons 112-171 region: 11R-TBC112-131, RRRRRRRRRRR-GGG-[…] (SEQ ID NO.:23); 11R-TBC132-151, RRRRRRRRRRR-GGG-[…] (SEQ ID NO.:24); 11R-TBC152-171 RRRRRRRRRRR-GGG-[…] (SEQ ID NO.:25). Peptides were purified by preparative reverse-phase high-performance liquid chromatography to make >95% purity. […] The viability of cells was evaluated by MTT assay at 3 days after the treatment.
# [2] = tested on: normal human lung fibroblast-derived CCD19Lu cells; format: cell-based; conditions: CCD19Lu cells in which TBC1D7 expression was hardly detectable, peptide 10, 15 or 20 microM for 3 days
# Description: as §1
# lung cancer LC319 cells [3] = assay: Flow cytometric cell cycle analysis after si-TBC1D7 transfection; format: cell-based, human; conditions: 48 to 96 hours after transfection
# Procedure: Cells were collected in PBS, and fixed in 70% cold ethanol for 30 minutes. After treatment with 100 micro g/mL RNase (Sigma/Aldrich, St. Louis, Mo.), the cells were stained with 50 micro g/mL propidium iodide (Sigma/Aldrich, St. Louis, Mo.) in PBS. Flow cytometry was done on a Becton Dickinson FACScan and analyzed by ModFit software (Verity Software House, Inc., Topsham, Me.). The cells selected from at least 10,000 ungated cells were analyzed for DNA content.
# TBC1D7 = assay: RNA interference assay: knockdown of TBC1D7 expression, semiquantitative RT-PCR; format: cell-based, human; conditions: LC319 and A549 cells; siRNA duplexes 100 nM transfected; versus control siRNAs (si-EGFP, si-LUC)
# Procedure: Total RNA was extracted from cultured cells and clinical tissues using Trizol reagent (Life Technologies, Inc.) according to the manufacturer's protocol. Extracted RNAs were treated with DNase I (Nippon Gene) and reversely-transcribed using oligo (dT) primer and SuperScript II reverse transcriptase (Invitrogen). […]
# (§2) Small interfering RNA (siRNA) duplexes (Dharmacon, Inc.) (100 nM) were transfected into a NSCLC cell line, A549 and esophageal cancer cell line, TE9, using 24 of Lipofectamine 2000 (Invitrogen) following the manufacturer's protocol. The transfected cells were cultured for 7 days, and the number of colonies was counted by Giemsa staining, and viability of cells was evaluated by 3-(4,5-dimethylthiazol-2-yl)-2,5-diphenyltetrazolium bromide (MTT) assay (cell counting kit-8 solution; Dojindo Laboratories), at 7 days after transfection. […]
# as §2, with “duplexes” for “duplexes (Dharmacon, Inc.)”, “LC319,” for “esophageal cancer cell line, TE9,”, “24 microL” for “24”
# [4] = tested on: LC319 and A549 cell lines; assay: MTT assay of lung cancer cells transfected with siRNAs against TBC1D7; format: cell-based, human; conditions: 7 days after transfection, siRNA 100 nM
# Procedure: as §2, with “transfection. To confirm suppression of TBC1D7 expression, semiquantitative RT-PCR was carried out with synthesized primers specific for TBC1D7 described above. SiRNA duplexes against human TBC1D7, si-TBC1D7-#1: siGenome duplexes 1 [D-021140-01: […]] (SEQ ID NO: 3 for target sequence SEQ ID NO.: 18) and si-TBC1D7-#2: siGenome duplexes 4 [D-021140-4: […]]” for “transfection.”
# as §2, with “duplexes” for “duplexes (Dharmacon, Inc.)”, “LC319,” for “esophageal cancer cell line, TE9,”, “24 microL” for “24”
# [5] = tested on: LC319 and A549 cell lines; assay: Colony formation assay (Giemsa staining) of lung cancer cells transfected with siRNAs against TBC1D7; format: cell-based, human; conditions: cultured 7 days after transfection, siRNA 100 nM
# Procedure: as §2, with “transfection. To confirm suppression of TBC1D7 expression, semiquantitative RT-PCR was carried out with synthesized primers specific for TBC1D7 described above. SiRNA duplexes against human TBC1D7, si-TBC1D7-#1: siGenome duplexes 1 [D-021140-01: […]] (SEQ ID NO: 3 for target sequence SEQ ID NO.: 18) and si-TBC1D7-#2: siGenome duplexes 4 [D-021140-4: […]]” for “transfection.”
# as §2, with “duplexes” for “duplexes (Dharmacon, Inc.)”, “LC319,” for “esophageal cancer cell line, TE9,”, “24 microL” for “24”
# [6] = molecular target: T1, endogenous TSC1 protein (human, lung …); assay: summary of the immunoprecipitation results in the discussion
# [7] = molecular target: T1, endogenous TSC1 protein (human, lung …); assay: immunoprecipitation experiments using LC319 cells, as the legend of FIG. 5A says
# Description: FIG. 5 depicts identification of TSC1-interacting region in TBC1D7 and inhibition of growth of lung cancer cells by dominant-negative peptides of TBC1D7. A, Left panel, Schematic drawing of six N-terminal Flag-tagged TBC1D7 partial protein constructs lacking either or both of the terminal regions. Right panels, Identification of the region in TBC1D7 that binds to TSC1 by immunoprecipitation experiments using LC319 cells. The TBC1D7₁₁₂₋₁₇₁ construct, which corresponds to a center region in TBC domain, was indicated to be TSC1-interacting region. B, Left top panel, Schematic drawing of three cell permeable peptides of TBC1D7 covering TBC1D7₁₁₂₋₁₇₁ that corresponds to the TSC1-interacting region in TBC1D7. B, Right top panels, Reduction of the complex formation between endogenous TSC1 and endogenous TBC1D7 proteins, detected by immunoprecipitation assay in LC319 cells that were treated with the 11R-TBC₁₅₂₋₁₇₁ peptides. C, MTT assay showing growth suppressive effect of 11R-TBC₁₅₂₋₁₇₁ peptides that were introduced into LC319 cells that expressed both TBC1D7 and TSC1 proteins. Bars, SD of triplicate assays. D, Left panels, Expressions of TBC1D7 and TSC1 proteins in lung cancer cell line LC319 and normal human lung fibroblast-derived CCD19Lu cells, examined by western blot analysis. […]
molecule,measurement,setting,value
RRRRRRRRRRR-GGG-EVFLAIAKAMEEMVEDSVDC (RRRRRRRRRRRGGGEVFLAIAKAMEEMVEDSVDC; a dominant-negative peptide) [11R-TBC1D7132-151],"cell viability / cell growth, MTT assay",lung cancer LC319 cells [1],no effect on cell growth
RRRRRRRRRRR-GGG-YQLESGKLPRSPSFPLEPDD (RRRRRRRRRRRGGGYQLESGKLPRSPSFPLEPDD; a dominant-negative peptide) [11R-TBC1D7112-131],"cell viability / cell growth, MTT assay",lung cancer LC319 cells [1],no effect on cell growth
RRRRRRRRRRRGGGYWITRRFVNQLNTKYRDSLP [11R-TBC1D7152-171],"cell viability of normal cells (off-target toxic effect), MTT assay",[2],no effect on cell viability
same,"cell viability of normal cells (off-target toxic effect), MTT assay",[2]; listed as 11R-TBC152-171,no off-target effect
"si-TBC1D7-#1: siRNA duplex against human TBC1D7, GAACAGUGCAGAGAAGAUAUU (SEQ ID NO: 3, target SEQ ID NO: 18), purchased from Dharmacon (chemistry not given here)",number of cells in S phase,lung cancer LC319 cells [3],continuously decreased
same,proportion of the cells in G2/M phase,lung cancer LC319 cells [3],increased
same,knockdown effect on TBC1D7 expression (RT-PCR),TBC1D7,knockdown effect was confirmed
same,"number / viability of cells, MTT assay (cell growth)",[4],drastic reduction in the number of cells
same,"number of cells / colonies, colony-formation assay",[5],drastic reduction in the number of cells
"si-TBC1D7-#2: siRNA duplex against human TBC1D7, GAUAAAGUUGUGAGUGGAUUU (SEQ ID NO: 4, target SEQ ID NO: 19), purchased from Dharmacon (chemistry not given here)",knockdown effect on TBC1D7 expression (RT-PCR),TBC1D7,knockdown effect was confirmed
same,"number / viability of cells, MTT assay (cell growth)",[4],drastic reduction in the number of cells
same,"number of cells / colonies, colony-formation assay",[5],drastic reduction in the number of cells
"endogenous TBC1D7 protein (human, lung cancer LC319 cells) (other, Endogenous protein in cell extracts; also called TBC1 domain family, member 7) MTEDSQRNFRSVYYEKVGFRGVEEKKSLEILLKDDRLDTEKLCTFSQRFPLPSMYRALVWKVLLGILPPHHESHAKVMMYRKEQYLDVLHALKVVRFVSDATPQAEVYLRMYQLESGKLPRSPSFPLEPDDEVFLAIAKAMEEMVEDSVDCYWITRRFVNQLNTKYRDSLPQLPKAFEQYLNLEDGRLLTHLRMCSAAPKLPYDLWFKRCFAGCLPESSLQRVWDKVVSGSCKILVFVAVEILLTFKIKVMALNSAEKITKFLENIPQDSSDAIVSKAIDLWHKHCGTPVHSS",binding result,[6],binds
"TBC112-171, N-terminal Flag-tagged TBC1D7 partial protein construct (other, not shown: small tags and cut ends) YQLESGKLPRSPSFPLEPDDEVFLAIAKAMEEMVEDSVDCYWITRRFVNQLNTKYRDSLP",binding result,[7],binds

# From patent US20120010266A1, “TBC1D7 AS TUMOR MARKER AND THERAPEUTIC TARGET FOR CANCER” (Oncotherapy Science Inc.,, priority 2008, published 2012)
